Assay results from PubChem BioAssay AID328 (DTP/NCI, 2004).
Several values for one entry are separate records, joined by “and”; a condition that tells them apart may be missing. Equal values may be shown once. Inconclusive results and toxic doses are left out. Rule for the calls: active = survival T/C of 150% or more; inactive = T/C below 125% in these data.

Tested on: BDF1 mice, P388 leukemia ip, median survival T/C
Experiment: NCI In Vivo Anticancer Drug Screen. Data for tumor model P388 Leukemia (intraperitoneal) in B6D2F1 (BDF1) mice
Settings: endpoint: median survival time, higher = longer survival
Summary of the method: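 Transplantable tumour in mice; compound vs vehicle dosing; survival scored; ratio of treated to control reported.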

[1] = dose: 100.0 mg/kg/injection, schedule: Q01DX009 (ip), vehicle: saline with Tween-80
[2] = dose: 100.0 mg/kg/injection, schedule: Q04DX003 (ip), vehicle: saline with Tween-80
[3] = dose: 200.0 mg/kg/injection, schedule: Q01DX009 (ip), vehicle: saline with Tween-80
[4] = dose: 200.0 mg/kg/injection, schedule: Q04DX003 (ip), vehicle: saline with Tween-80
[5] = dose: 400.0 mg/kg/injection, schedule: Q01DX009 (ip), vehicle: saline with Tween-80
[6] = dose: 100.0 mg/kg/injection, schedule: Q04DX003 (ip), vehicle: saline
[7] = dose: 50.0 mg/kg/injection, schedule: Q01DX009 (ip), vehicle: saline with Tween-80
[8] = dose: 50.0 mg/kg/injection, schedule: Q04DX003 (ip), vehicle: water
[9] = dose: 100.0 mg/kg/injection, schedule: Q04DX003 (ip), vehicle: water
[10] = dose: 400.0 mg/kg/injection, schedule: Q04DX003 (ip), vehicle: saline with Tween-80
[11] = dose: 100.0 mg/kg/injection, schedule: Q04DX003 (ip), vehicle: Klucel (hydroxypropylcellulose) (HPC)
[12] = dose: 200.0 mg/kg/injection, schedule: Q04DX002 (ip), vehicle: saline with Tween-80
[13] = dose: 400.0 mg/kg/injection, schedule: Q04DX002 (ip), vehicle: saline with Tween-80
[14] = dose: 200.0 mg/kg/injection, schedule: Q04DX003 (ip), vehicle: Klucel (hydroxypropylcellulose) (HPC)

Measured: T/C

O=C1Cc2ccccc21
inactive: [1] 96 % of control | [2] 100 % of control and 110 % of control | dose: 177.0 mg/kg/injection, schedule: Q04DX003 (ip), vehicle: saline with Tween-80 100 % of control | [3] 107 % of control | [4] 110 % of control | dose: 266.0 mg/kg/injection, schedule: Q04DX003 (ip), vehicle: saline with Tween-80 104 % of control and 109 % of control | dose: 600.0 mg/kg/injection, schedule: Q04DX003 (ip), vehicle: saline with Tween-80 104 % of control and 122 % of control

C[C@]12C=CC(=O)C[C@@H]1CC[C@@H]1[C@@H]2C(=O)C[C@]2(C)C(=O)CC[C@@H]12
inactive: [1] 100 % of control | [3] 100 % of control | [5] 109 % of control

O=C(/C=C/c1ccccc1)N1CCOCC1
inactive: dose: 50.0 mg/kg/injection, schedule: Q04DX003 (ip), vehicle: saline 95 % of control | [6] 95 % of control

SC1(SC2(S)CCCCC2)CCCCC1
inactive: [7] 100 % of control | [1] 100 % of control | [3] 100 % of control

CN(C)c1ccc(/C=C2\C=Cc3ccccc32)cc1Br
inactive: dose: 25.0 mg/kg/injection, schedule: Q04DX003 (sc), vehicle: olive oil, sesame oil, peanut oil 95 % of control | dose: 50.0 mg/kg/injection, schedule: Q04DX003 (sc), vehicle: olive oil, sesame oil, peanut oil 100 % of control | dose: 100.0 mg/kg/injection, schedule: Q04DX003 (sc), vehicle: olive oil, sesame oil, peanut oil 87 % of control

O=C(CBr)c1ccc(F)cc1
inactive: dose: 0.78 mg/kg/injection, schedule: Q01DX009 (ip), vehicle: Klucel (hydroxypropylcellulose) (HPC) 110 % of control | dose: 1.56 mg/kg/injection, schedule: Q01DX009 (ip), vehicle: Klucel (hydroxypropylcellulose) (HPC) 110 % of control | dose: 3.12 mg/kg/injection, schedule: Q01DX009 (ip), vehicle: Klucel (hydroxypropylcellulose) (HPC) 112 % of control | dose: 6.25 mg/kg/injection, schedule: Q01DX009 (ip), vehicle: Klucel (hydroxypropylcellulose) (HPC) 118 % of control

CC1(C#N)CCC2c3ccccc3CCC2C1=O (configuration not stated)
inactive: [6] 100 % of control | dose: 200.0 mg/kg/injection, schedule: Q04DX003 (ip), vehicle: saline 100 % of control | dose: 400.0 mg/kg/injection, schedule: Q04DX003 (ip), vehicle: saline 100 % of control

CC1CN(Cc2ccccc2O)CC(C)N1 (configuration not stated)
inactive: dose: 6.25 mg/kg/injection, schedule: Q04DX003 (ip), vehicle: water 103 % of control | dose: 12.5 mg/kg/injection, schedule: Q04DX003 (ip), vehicle: water 103 % of control | dose: 25.0 mg/kg/injection, schedule: Q04DX003 (ip), vehicle: water 103 % of control | [8] 109 % of control | [9] 97 % of control

C/C(=C\C(=O)O)CC(=O)O
inactive: dose: 25.0 mg/kg/injection, schedule: Q01DX009 (ip), vehicle: water 109 % of control | dose: 50.0 mg/kg/injection, schedule: Q01DX009 (ip), vehicle: water 95 % of control | [8] 92 % of control | dose: 100.0 mg/kg/injection, schedule: Q01DX009 (ip), vehicle: water 99 % of control | [9] 99 % of control and 108 % of control | dose: 200.0 mg/kg/injection, schedule: Q01DX009 (ip), vehicle: water 101 % of control | dose: 200.0 mg/kg/injection, schedule: Q04DX003 (ip), vehicle: water 104 % of control and 110 % of control

CC(C)=CC(=O)n1nc2c(c1CC(C)C)C(=O)C(Nc1ccccc1)=CC2=O
inactive: [2] 93 % of control | [4] 90 % of control | [10] 100 % of control

CCCCCCCC(=O)NCCCC
inactive: dose: 100.0 mg/kg/injection, schedule: Q01DX001 (ip), vehicle: Klucel (hydroxypropylcellulose) (HPC) 104 % of control | [11] 91 % of control | dose: 200.0 mg/kg/injection, schedule: Q01DX001 (ip), vehicle: Klucel (hydroxypropylcellulose) (HPC) 86 % of control | dose: 400.0 mg/kg/injection, schedule: Q01DX001 (ip), vehicle: Klucel (hydroxypropylcellulose) (HPC) 104 % of control | dose: 400.0 mg/kg/injection, schedule: Q04DX003 (ip), vehicle: Klucel (hydroxypropylcellulose) (HPC) 100 % of control

N#Cc1nnc2cc[nH]n2c1=O
inactive: dose: 100.0 mg/kg/injection, schedule: Q04DX002 (ip), vehicle: saline with Tween-80 100 % of control | [12] 103 % of control | [13] 109 % of control

COc1ccc(C2CCc3cc4c(cc3C2=O)OCO4)cc1OC (configuration not stated)
inactive: [1] 100 % of control | [2] 90 % of control | [3] 95 % of control | [4] 100 % of control | [5] 100 % of control | [10] 100 % of control

CCOC(=O)CN1C=C(C(=O)c2cc3ccccc3[nH]2)CCC1
inactive: dose: 0.06 mg/kg/injection, schedule: Q01DX009 (ip), vehicle: saline 105 % of control | dose: 0.12 mg/kg/injection, schedule: Q01DX009 (ip), vehicle: saline 105 % of control | dose: 0.25 mg/kg/injection, schedule: Q01DX009 (ip), vehicle: saline 105 % of control | dose: 0.5 mg/kg/injection, schedule: Q01DX009 (ip), vehicle: saline 100 % of control | dose: 1.0 mg/kg/injection, schedule: Q01DX009 (ip), vehicle: saline 105 % of control | dose: 2.0 mg/kg/injection, schedule: Q01DX009 (ip), vehicle: saline 110 % of control | dose: 4.0 mg/kg/injection, schedule: Q01DX009 (ip), vehicle: saline 99 % of control | dose: 8.0 mg/kg/injection, schedule: Q01DX009 (ip), vehicle: saline 98 % of control | dose: 16.0 mg/kg/injection, schedule: Q01DX009 (ip), vehicle: saline 93 % of control | dose: 32.0 mg/kg/injection, schedule: Q01DX009 (ip), vehicle: saline 98 % of control

CC(C)CC(NC(=O)c1ccccc1)C(=O)O (configuration not stated)
inactive: dose: 100.0 mg/kg/injection, schedule: Q04DX003 (ip), vehicle: alkali diluted with water 99 % of control | dose: 200.0 mg/kg/injection, schedule: Q04DX003 (ip), vehicle: alkali diluted with water 99 % of control | dose: 400.0 mg/kg/injection, schedule: Q04DX003 (ip), vehicle: alkali diluted with water 108 % of control

CCCCCCCCCCCCNC(=O)CCC(=O)O
inactive: dose: 37.5 mg/kg/injection, schedule: Q01DX009 (ip), vehicle: saline with Tween-80 91 % of control | dose: 75.0 mg/kg/injection, schedule: Q01DX009 (ip), vehicle: saline with Tween-80 87 % of control

O=C(c1ccccc1Br)C(Br)C(Br)c1ccccc1 (configuration not stated)
inactive: [11] 120 % of control | [14] 110 % of control

COc1cc(C=Nc2cccc(C(F)(F)F)c2)ccc1O
inactive: [11] 95 % of control | [14] 100 % of control

CN(C)C1C(=O)C(C(=O)NCN2CCOB(c3ccccc3)OCC2)=C(O)C2(O)C(O)=C3C(=O)C4C(O)=CC=CC4C(C)(O)C3CC12 (configuration not stated)
inactive: [12] 93 % of control | [13] 112 % of control

Cn1c2c(c3ccccc3c1=O)C(=O)c1ccccc1-2
inactive: [7] 101 % of control | [3] 90 % of control
